ChEMBL document CHEMBL1201862, “PubChem BioAssay data set” (2004)
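Assay format: 96-well plates, 48-hour exposure. GI50 marks 50% less growth.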 Activity calls are given as the source filed them. No stated cut-off is given here; in the data, active = GI50 up to about 1.1 µM and inactive = higher.

Columns and labels:
Test in all cases: growth of human tumour cells (NCI), 48 h
786-0 = tested on: 786-0
A498 = tested on: A498
COLO 205 = tested on: COLO 205
HCT-15 = tested on: HCT-15
HL-60 = tested on: HL-60
HOP-92 = tested on: HOP-92
HT-29 = tested on: HT-29
MCF7 = tested on: MCF7
MDA-MB-435 = tested on: MDA-MB-435
Malme-3M = tested on: Malme-3M
NCI-H226 = tested on: NCI-H226
OVCAR-3 = tested on: OVCAR-3
OVCAR-4 = tested on: OVCAR-4
RPMI-8226 = tested on: RPMI-8226
RXF 393 = tested on: RXF 393
SK-OV-3 = tested on: SK-OV-3
SNB-75 = tested on: SNB-75
SR = tested on: SR
T47D = tested on: T47D
TK-10 = tested on: TK-10

Q: For CCCC[C@H]1C(=O)O[C@H](C)[C@H](NC(=O)c2cccc(NC=O)c2O)C(=O)O[C@@H](C)[C@@H]1OC(=O)CC(C)C [ANTIMYCIN A3], which GI50 (786-0) is on record?
A: 9.08 µM (inactive)

Q: And the GI50 (A498)?
A: 4.23 µM (inactive)

Q: And the GI50 (COLO 205)?
A: 3.34 µM (inactive)

Q: What about the GI50 (HCT-15) of the same compound?
A: < 0.01 µM

Q: What about the GI50 (HL-60) of the same compound?
A: 0.0968 µM (active)

Q: And the GI50 (HOP-92)?
A: 5.36 µM (inactive)

Q: And the GI50 (HT-29)?
A: 1.6 µM (inactive)

Q: And the GI50 (MCF7)?
A: 0.0442 µM (active)

Q: What about the GI50 (MDA-MB-435) of the same compound?
A: 1.11 µM (active)

Q: And the GI50 (Malme-3M)?
A: 7.28 µM (inactive)

Q: And the GI50 (NCI-H226)?
A: 0.883 µM (active)

Q: What about the GI50 (OVCAR-3) of the same compound?
A: 2.38 µM (inactive)

Q: What about the GI50 (OVCAR-4) of the same compound?
A: 2.37 µM (inactive)

Q: What about the GI50 (RPMI-8226) of the same compound?
A: 0.109 µM (active)

Q: What about the GI50 (RXF 393) of the same compound?
A: 6.49 µM (inactive)

Q: What about the GI50 (SK-OV-3) of the same compound?
A: 12 µM (inactive)

Q: And the GI50 (SNB-75)?
A: 21.4 µM (inactive)

Q: What about the GI50 (SR) of the same compound?
A: < 0.0347 µM (active)

Q: What about the GI50 (T47D) of the same compound?
A: 2.19 µM (inactive)

Q: What about the GI50 (TK-10) of the same compound?
A: 6.79 µM (inactive)

Q: What does the source list for O=C1C=CC(=O)C(CNc2ccc(C(=O)OC34CC5CC(CC(C5)C3)C4)cc2)=C1?
A: GI50 (786-0): 10.3 µM (inactive); GI50 (A498): 11.7 µM (inactive); GI50 (COLO 205): 2.04 µM (inactive); GI50 (HCT-15): 2.44 µM; GI50 (HL-60): 1.53 µM (inactive); GI50 (HOP-92): 3.28 µM (inactive); GI50 (HT-29): 9.44 µM (inactive); GI50 (MCF7): 3.43 µM (inactive); GI50 (MDA-MB-435): 5.93 µM (inactive); GI50 (Malme-3M): 4.58 µM (inactive); GI50 (NCI-H226): 2 µM (inactive); GI50 (OVCAR-3): 3.06 µM (inactive); GI50 (OVCAR-4): 3.01 µM (inactive); GI50 (RPMI-8226): 1.93 µM (inactive); GI50 (RXF 393): 1.71 µM (inactive); GI50 (SK-OV-3): 20 µM (inactive); GI50 (SNB-75): 3.39 µM (inactive); GI50 (SR): 3.81 µM (inactive); GI50 (T47D): 2.49 µM (inactive); GI50 (TK-10): 11.5 µM (inactive)

Q: With CC(CO)(CO)/N=C/c1cc(I)cc(I)c1O as the compound, how does the GI50 (786-0) read?
A: 13.6 µM (inactive)

Q: And the GI50 (A498)?
A: 26.5 µM (inactive)

Q: And the GI50 (COLO 205)?
A: 17.8 µM (inactive)

Q: And the GI50 (HCT-15)?
A: 9.33 µM

Q: What about the GI50 (HL-60) of the same compound?
A: 11.2 µM (inactive)

Q: And the GI50 (HOP-92)?
A: 14 µM (inactive)

Q: What about the GI50 (HT-29) of the same compound?
A: 21.4 µM (inactive)

Q: And the GI50 (MCF7)?
A: 19.5 µM (inactive)

Q: And the GI50 (MDA-MB-435)?
A: 13.5 µM (inactive)

Q: And the GI50 (Malme-3M)?
A: 13.1 µM (inactive)

Q: What about the GI50 (NCI-H226) of the same compound?
A: 16.4 µM (inactive)

Q: What about the GI50 (OVCAR-3) of the same compound?
A: 9.79 µM (inactive)

Q: And the GI50 (OVCAR-4)?
A: 8.65 µM (inactive)

Q: What about the GI50 (RPMI-8226) of the same compound?
A: 21.3 µM (inactive)

Q: And the GI50 (RXF 393)?
A: 10.9 µM (inactive)

Q: What about the GI50 (SK-OV-3) of the same compound?
A: 13.6 µM (inactive)

Q: And the GI50 (SNB-75)?
A: 12.9 µM (inactive)

Q: What about the GI50 (SR) of the same compound?
A: 8.53 µM (inactive)

Q: What about the GI50 (T47D) of the same compound?
A: 23.1 µM (inactive)

Q: And the GI50 (TK-10)?
A: 26 µM (inactive)

Q: How did the GI50 (786-0) turn out when CN(C)CCCNc1ccc2c(=O)n(CCN(C)C)c(=O)n3c4ccccc4c(=O)c1c23 was run?
A: 0.0419 µM (active)

Q: And the GI50 (A498)?
A: 0.309 µM (active)

Q: And the GI50 (COLO 205)?
A: 0.127 µM (active)

Q: What about the GI50 (HCT-15) of the same compound?
A: 0.0562 µM

Q: And the GI50 (HL-60)?
A: 0.15 µM (active)

Q: And the GI50 (HOP-92)?
A: 0.664 µM (active)

Q: What about the GI50 (HT-29) of the same compound?
A: 0.0647 µM (active)

Q: What about the GI50 (MCF7) of the same compound?
A: 0.0885 µM (active)

Q: And the GI50 (MDA-MB-435)?
A: 0.259 µM (active)

Q: What about the GI50 (Malme-3M) of the same compound?
A: 0.286 µM (active)

Q: What about the GI50 (NCI-H226) of the same compound?
A: 0.368 µM (active)

Q: And the GI50 (OVCAR-3)?
A: 0.34 µM (active)

Q: And the GI50 (OVCAR-4)?
A: 0.224 µM (active)

Q: And the GI50 (RPMI-8226)?
A: 0.129 µM (active)

Q: What about the GI50 (RXF 393) of the same compound?
A: 0.783 µM (active)

Q: And the GI50 (SK-OV-3)?
A: 0.582 µM (active)

Q: What about the GI50 (SNB-75) of the same compound?
A: 1.1 µM (active)

Q: What about the GI50 (SR) of the same compound?
A: 0.022 µM (active)

Q: And the GI50 (T47D)?
A: 1.03 µM (active)

Q: What about the GI50 (TK-10) of the same compound?
A: 0.518 µM (active)

Q: Which results are given for CC(C)(C)CC(C)(C)c1ccc(O)c(C[N+](C)(C)[O-])c1?
A: GI50 (786-0): > 100 µM (inactive); GI50 (A498): > 100 µM (inactive); GI50 (COLO 205): 60.3 µM (inactive); GI50 (HCT-15): > 100 µM; GI50 (HL-60): 33.3 µM (inactive); GI50 (HOP-92): 77.4 µM (inactive); GI50 (HT-29): 73.6 µM (inactive); GI50 (MCF7): 80 µM (inactive); GI50 (MDA-MB-435): 79.4 µM (inactive); GI50 (Malme-3M): > 100 µM (inactive); GI50 (NCI-H226): > 100 µM (inactive); GI50 (OVCAR-3): 58.5 µM (inactive); GI50 (OVCAR-4): 63.5 µM (inactive); GI50 (RPMI-8226): 62.2 µM (inactive); GI50 (RXF 393): > 100 µM (inactive); GI50 (SK-OV-3): > 100 µM (inactive); GI50 (SNB-75): 91.2 µM (inactive); GI50 (SR): 64.9 µM (inactive); GI50 (T47D): 68.2 µM (inactive); GI50 (TK-10): > 100 µM (inactive)
